Measurements published in patent US12194039B2, “Methods of treating heart failure by administering omecamtiv mecarbil” (Cytokinetics, Inc., priority 2020, dated 2025).
Read-outs that look alike come from different tables or passages of the source.

Experiments:
[1] = target: MATE 2-K (Homo sapiens, UniProt Q86VL8); assay: In vitro inhibition by OM; format: in vitro ADME; details: result in words
[2] = Drug interactions: change in OM pharmacokinetics in the presence of co-administered drugs; format: in vivo, human
[3] = target: T1, BCRP (Homo sapiens, UniProt Q9UNQ0); assay: Clinical studies and physiologically based pharmacokinetic modeling of OM as perpetrator; format: in vivo; set-up: from tissue; details: clinical studies and PBPK modeling; result in words
T1 sequence (Q9UNQ0 1-655): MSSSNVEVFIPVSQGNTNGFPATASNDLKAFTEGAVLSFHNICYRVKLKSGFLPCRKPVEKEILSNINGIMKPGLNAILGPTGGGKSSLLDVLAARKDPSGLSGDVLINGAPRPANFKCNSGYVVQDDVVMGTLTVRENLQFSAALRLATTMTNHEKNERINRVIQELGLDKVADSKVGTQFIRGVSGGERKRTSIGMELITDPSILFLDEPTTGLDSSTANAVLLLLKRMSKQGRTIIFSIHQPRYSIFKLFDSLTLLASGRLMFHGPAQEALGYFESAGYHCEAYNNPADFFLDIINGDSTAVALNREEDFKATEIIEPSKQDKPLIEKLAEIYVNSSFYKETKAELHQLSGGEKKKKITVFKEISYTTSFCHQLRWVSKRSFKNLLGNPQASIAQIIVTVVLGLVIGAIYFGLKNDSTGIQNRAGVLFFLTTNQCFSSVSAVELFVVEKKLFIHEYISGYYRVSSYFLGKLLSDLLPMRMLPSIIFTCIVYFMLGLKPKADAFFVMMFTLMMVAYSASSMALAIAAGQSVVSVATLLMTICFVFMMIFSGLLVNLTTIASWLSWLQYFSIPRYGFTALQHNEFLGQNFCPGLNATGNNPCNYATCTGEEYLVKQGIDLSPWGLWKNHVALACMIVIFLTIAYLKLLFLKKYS
Source text: OM may be administered with drugs that are substrates of CYP3A4, CYP2C8, P-gp or BCRP.

[4] = target: T2, CYP2C8 (Homo sapiens, UniProt P10632); assay: In vitro inhibition by OM; format: in vitro ADME; details: result in words
T2 sequence (P10632 1-490): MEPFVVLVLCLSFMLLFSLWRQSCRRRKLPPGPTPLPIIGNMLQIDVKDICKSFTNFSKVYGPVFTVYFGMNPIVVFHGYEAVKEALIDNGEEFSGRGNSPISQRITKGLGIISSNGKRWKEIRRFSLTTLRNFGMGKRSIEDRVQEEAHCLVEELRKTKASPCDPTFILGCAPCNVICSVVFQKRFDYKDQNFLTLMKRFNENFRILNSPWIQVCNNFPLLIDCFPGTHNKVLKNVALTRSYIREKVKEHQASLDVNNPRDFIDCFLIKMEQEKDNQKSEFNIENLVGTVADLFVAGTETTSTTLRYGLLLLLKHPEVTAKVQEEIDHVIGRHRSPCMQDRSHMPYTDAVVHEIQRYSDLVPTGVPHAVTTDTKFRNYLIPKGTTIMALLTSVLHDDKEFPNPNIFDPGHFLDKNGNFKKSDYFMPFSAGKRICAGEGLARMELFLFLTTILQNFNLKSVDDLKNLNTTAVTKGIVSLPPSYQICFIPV

[5] = test system: patients with heart failure with reduced ejection fraction
Source text: The primary outcome was a composite of the time to a heart failure event or cardiovascular death, whichever occurred first. A heart failure event was defined as an urgent clinic visit, emergency department visit or hospitalization for subjectively and objectively worsening heart failure leading to treatment intensification beyond changed oral diuretic therapy. Secondary outcomes were: the time to cardiovascular death; change in KCCQ Total Symptom Score (TSS) from baseline to Week 24 (scale from 0 to 100; higher score indicates fewer symptoms); time to first heart failure hospitalization; and time to all-cause death. All deaths, HF events, major cardiac ischemic events (myocardial infarction/unstable angina hospitalization, and coronary revascularization), and strokes were adjudicated by a blinded external Clinical Events Committee (Duke Clinical Research Institute) using standardized definitions.

[6] = test system: patients with or without AFF; format: in vivo; details: for Troponin I increase: at 6 weeks; for Treatment effect on primary outcome by AFF at baseline: multivariable covariate-interaction model
[7] = format: in vivo; details: human, plasma, oral, at 6 weeks, read-out: Omecamtiv mecarbil PK value (plasma concentration), median
[8] = target: T3, MATE1 (Homo sapiens, UniProt Q96FL8); assay: In vitro inhibition by OM; format: in vitro ADME; details: result in words
T3 sequence (Q96FL8 1-570): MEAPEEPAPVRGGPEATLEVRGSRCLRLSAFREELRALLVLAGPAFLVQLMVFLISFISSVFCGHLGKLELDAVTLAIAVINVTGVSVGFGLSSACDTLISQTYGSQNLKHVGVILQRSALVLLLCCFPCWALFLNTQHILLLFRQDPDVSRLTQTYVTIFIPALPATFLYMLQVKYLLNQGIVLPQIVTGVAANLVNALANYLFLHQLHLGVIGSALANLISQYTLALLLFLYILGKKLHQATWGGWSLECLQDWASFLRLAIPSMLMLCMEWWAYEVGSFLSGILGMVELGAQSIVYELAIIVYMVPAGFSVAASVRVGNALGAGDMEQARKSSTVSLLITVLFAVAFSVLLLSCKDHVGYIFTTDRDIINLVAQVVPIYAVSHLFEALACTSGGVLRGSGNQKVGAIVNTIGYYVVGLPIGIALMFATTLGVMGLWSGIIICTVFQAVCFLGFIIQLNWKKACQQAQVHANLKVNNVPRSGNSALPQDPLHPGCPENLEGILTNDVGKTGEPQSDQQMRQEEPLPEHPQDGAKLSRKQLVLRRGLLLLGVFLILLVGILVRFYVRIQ

[9] = CYP2D6 genotype: PM (N = 8) versus EM (N = 16)
[10] = with P-gp inhibitor amiodarone 600 mg SD, OM 50 mg SD, vs OM alone
[11] = with moderate CYP3A inhibitor diltiazem 240 mg QD × 8 days, OM 10 mg SD, vs OM alone
[12] = with pH modifying agent omeprazole 40 mg QD × 6 days, OM 50 mg SD, vs OM alone
[13] = with strong CYP3A and P-gp inhibitor ketoconazole 200 mg BID × 8 days, OM 10 mg SD, vs OM alone

MATE 2-K, sequence (Q86VL8 1-566 isoform Q86VL8-3): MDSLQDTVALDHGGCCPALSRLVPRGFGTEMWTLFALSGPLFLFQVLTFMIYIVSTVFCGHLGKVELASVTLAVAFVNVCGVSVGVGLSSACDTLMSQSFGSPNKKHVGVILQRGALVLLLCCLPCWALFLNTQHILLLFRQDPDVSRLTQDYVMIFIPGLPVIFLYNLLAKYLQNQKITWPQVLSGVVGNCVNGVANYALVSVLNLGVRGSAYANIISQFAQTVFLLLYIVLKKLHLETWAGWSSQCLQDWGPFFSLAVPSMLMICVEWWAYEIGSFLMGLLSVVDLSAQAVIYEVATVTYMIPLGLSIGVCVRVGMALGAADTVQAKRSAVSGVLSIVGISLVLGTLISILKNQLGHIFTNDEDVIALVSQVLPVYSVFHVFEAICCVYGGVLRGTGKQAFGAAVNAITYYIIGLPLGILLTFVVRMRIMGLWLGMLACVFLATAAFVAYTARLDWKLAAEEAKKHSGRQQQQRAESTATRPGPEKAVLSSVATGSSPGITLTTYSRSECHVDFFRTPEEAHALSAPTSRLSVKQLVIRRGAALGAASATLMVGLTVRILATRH

## COC(=O)N1CCN(Cc2cccc(NC(=O)Nc3ccc(C)nc3)c2F)CC1 [omecamtiv mecarbil]
[1]
  Inhibition of MATE 2-K: inhibitor
[2]; [9]
  % Change of OM AUC (↑ = increase): ↑30%
  % Change of OM Cmax (↓ = decrease): ↓18%
  Mean Ratio of OM AUC (90% CI): 1.30 (0.93-1.82)
  Mean Ratio of OM Cmax (90% CI): 0.82 (0.63-1.07)
[2]; [10]
  % Change of OM AUC (↑ = increase): ↑ 21%
  Mean Ratio of OM AUC (90% CI): 1.21 (1.08-1.36)
  Mean Ratio of OM Cmax (90% CI): 1.08 (0.96-1.22)
[2]; [11]
  % Change of OM Cmax (↓ = decrease): ↓21%
  Mean Ratio of OM AUC (90% CI): 1.08 (0.97-1.22)
  Mean Ratio of OM Cmax (90% CI): 0.79 (0.60-1.04)
[2]; [12]
  Mean Ratio of OM AUC (90% CI): 0.95 (0.82-1.09)
  Mean Ratio of OM Cmax (90% CI): 1.01 (0.95-1.07)
[2]; [13]
  % Change of OM AUC (↑ = increase): ↑51%
  Mean Ratio of OM AUC (90% CI): 1.51 (1.20-1.91)
  Mean Ratio of OM Cmax (90% CI): 1.03 (0.76-1.40)
[3]
  Inhibition of BCRP: weak inhibitor
[4]
  Inhibition of CYP2C8: inhibitor
[5]; all patients randomized
  Reduction in fatal stroke: 42%
  Reduction in the risk of first fatal or non-fatal stroke: 35%
[5]; in vivo
  Adjudicated type of first stroke event: Hemorrhagic, %: 0.1%
  Adjudicated type of first stroke event: Ischemic (Non-hemorrhagic), %: 1.6%
  Adjudicated type of first stroke event: Undetermined, %: 0.1%
[5]; n = 4110
  Adjudicated type of first stroke event: Ischemic with hemorrhagic transformation, %: 0.1%
[5]; no AF/F at screening
  New onset atrial fibrillation/flutter, hazard ratio: 0.70
[5]; no history of AF/F
  New onset atrial fibrillation/flutter, hazard ratio: 0.60
[5]; no history of atrial fibrillation
  Non-fatal and fatal stroke, hazard ratio: 0.81
[5]; no history of stroke
  Non-fatal and fatal stroke, hazard ratio: 0.78
[5]; patients with a history of stroke, vs placebo
  Primary endpoint, hazard ratio: 0.86
[5]; patients with no stroke, vs placebo
  Primary endpoint, hazard ratio: 0.93
[5]; result in words
  Time to first stroke event: significantly reduced
[5]; vs placebo
  Fatal stroke, hazard ratio: 0.56
[5]; with history of atrial fibrillation
  Non-fatal and fatal stroke, hazard ratio: 0.49
[5]; with history of stroke
  Non-fatal and fatal stroke, hazard ratio: 0.23
[6]; patients in AFF at baseline not taking digoxin
  Troponin I increase: +45%
[6]; patients in AFF at baseline taking digoxin
  Troponin I increase: +29%
[6]; result in words
  Treatment effect on primary outcome by AFF at baseline: greater benefit observed in patients not in AFF
  Treatment effect modification by AFF according to digoxin use: significantly more pronounced in digoxin users than in non-users
[6]; result in words, listed as OM
  Treatment effect on primary outcome by AFF at baseline: patients without AFF deriving greater benefit
[6]; per 2974 patients, over the course of the study (FIG. 21E)
  Serious adverse events, events: 55 events
[7]; patients not taking digoxin
  concentration at 6 weeks: 280 ng/mL
[7]; patients taking digoxin
  concentration at 6 weeks: 286 ng/mL
[8]
  Inhibition of MATE1: inhibitor
